Data as given in patent US5166208A, “Fredericamycin A derivatives” (Boston College, priority 1991, dated 1992).
Converted amounts (≈) assume the structure as drawn. Where a name gives a salt, the structure may show the parent alone.

What was measured:
[1] = system: human colon tumor with low topo II activity (HCTVP); experiment: In vitro microdilution inhibition, HCTVP; type: cell-based; conditions: 72 hours, 50% of cells killed
Source text: (§1) As shown in Table III the compounds of the present invention exert an in vitro antitumor effect. The following cells lines were employed: human lung (A549); resistant human lung with low topo II activity (A549-VP); murine melanoma (B16); human colon tumor (HCT116); human colon tumor with elevated p170 levels (HCTVM); human colon tumor with low topo II activity (HCTVP); and another human colon carcinoma cell line (Moser). In the Table, the designation "NT" indicates the compound was not tested against the specified cell line. The cell lines were maintained in continuous culture at 37°, 5% CO2 and high humidity. Cells were harvested in log phase growth and suspended at concentration of 25,000 cells/mL. A […] aliquot was then added to each well (i.e., 3,750 cells per well) of a 96-well flat bottom plate and the cells were allowed to attach over a 24 hour period. After this 24 hour incubation, a 50 μL sample of the specified compound was added to the first (top) well of each column, and the remaining wells of each column serially diluted, 1:4, and allowed to incubate for 72 hours at 37° C., 5% CO2 and high humidity. Following incubation, 50 μL of freshly prepared stain solution was added to each well. After a 3 hour incubation at room temperature, absorbance was read at 450 nm on a microplate reader to determine the compound concentration at which 50% of the cells were killed, such concentration referred to as the "IC50 ".

[2] = system: human lung (A549); experiment: In vitro microdilution inhibition, human lung A549; type: cell-based; conditions: A549, 72 hours, 50% of cells killed
Source text: as §1

[3] = system: human colon tumor with elevated p170 levels (HCTVM); experiment: In vitro microdilution inhibition, HCTVM; type: cell-based; conditions: 72 hours, 50% of cells killed
Source text: as §1

[4] = system: human colon tumor (HCT116); experiment: In vitro microdilution inhibition, HCT116; type: cell-based; conditions: HCT-116, 72 hours, 50% of cells killed
Source text: as §1

[5] = system: murine melanoma (B16); experiment: In vitro microdilution inhibition, B16; type: cell-based; conditions: Mus musculus; B16, 72 hours, 50% of cells killed
Source text: as §1

[6] = system: p388 murine leukemia; experiment: In vivo activity against p388 murine leukemia in an acute mouse model; conditions: for AWC (average weight change per mouse): before treatment to day five
Description: CDF1 mice of both sexes weighing between 16 and 25 gm. were used, with a 2 gm. weight range and same sex and source used per experiment. BDF1 mice also were used with the same weight, sex and source parameters. Control and test animals were injected interperitoneally with suspension of 1×10^6 p388 murine leukemia cells (0.5 mL dose) on day 0. Groups of 4-6 mice were used for each dosage amount they were treated with 5 doses on day one. A group of ten saline treated control mice was included in each set of experiments. A 30 day protocol was employed with mean survival time in days being determined for each group of mice with the number of survivors at the end of the 30 day period being noted. The mice were weighed before treatment and again on day five. The values listed for average weight change (AWC) is the average weight change per mouse at the specified dose. The change in weight was taken as a measure of drug toxicity. A loss in weight of up to 2 grams is not considered excessive. The results were determined in terms of % T/C which is the ratio of the mean survival time of the treated group to the mean survival time of the saline treated group times 100.

[7] = system: resistant human lung with low topo II activity (A549-VP); experiment: In vitro microdilution inhibition, resistant human lung A549-VP; type: cell-based; conditions: A549VP, 72 hours, 50% of cells killed
Source text: as §1

Structure (SMILES) | IC50 [1] | IC50 [2] | IC50 [3] | IC50 [4] | IC50 [5] | AWC (average weight change per mouse) ([6]; CDF1 (mixed sex), 5 mg/kg) | AWC (average weight change per mouse) ([6]; CDF1 (mixed sex), 15 mg/kg) | AWC (average weight change per mouse) ([6]; CDF1 (mixed sex), 45 mg/kg) | response vs control in vivo at 5 mg/kg ([6]; Mus musculus, P388, 720 h, CDF1 (mixed sex), 5 mg/kg, read-out: % T/C (mean survival time treated/control)) | response vs control in vivo at 15 mg/kg ([6]; Mus musculus, P388, 720 h, CDF1 (mixed sex), 15 mg/kg, read-out: % T/C (mean survival time treated/control)) | response vs control in vivo at 45 mg/kg ([6]; Mus musculus, P388, 720 h, CDF1 (mixed sex), 45 mg/kg, read-out: % T/C (mean survival time treated/control)) | IC50 [7] | AWC (average weight change per mouse) ([6]; CDF1 (female only), 4 mg/kg) | AWC (average weight change per mouse) ([6]; CDF1 (female only), 12 mg/kg) | AWC (average weight change per mouse) ([6]; CDF1 (female only), 36 mg/kg) | response vs control in vivo at 4 mg/kg ([6]; Mus musculus, P388, 720 h, CDF1 (female only), 4 mg/kg, read-out: % T/C (mean survival time treated/control)) | response vs control in vivo at 12 mg/kg ([6]; Mus musculus, P388, 720 h, CDF1 (female only), 12 mg/kg, read-out: % T/C (mean survival time treated/control)) | response vs control in vivo at 36 mg/kg ([6]; Mus musculus, P388, 720 h, CDF1 (female only), 36 mg/kg, read-out: % T/C (mean survival time treated/control))
CN(C)CCNC1=CC(=O)c2c(O)c3c(c(O)c2C1=O)C(=O)C1(CCc2cccc(O)c21)C3=O (stereo not drawn) [Example 24, hydrochloride] | 1.1 µg/mL | 0.5 µg/mL | 0.7 µg/mL | 0.2 µg/mL | 0.4 µg/mL | -0.3 | -0.3 | -0.9 | 110% | 110% | 120% | 1.4 µg/mL |  |  |  |  |  | 
CCCCCc1cc2cc3c(c(O)c2c(=O)[nH]1)C1(CC3)C(=O)c2c(O)c3c(c(O)c2C1=O)C(=O)C(NCCN(C)C)=CC3=O (stereo not drawn) [Example 25, hydrochloride] | 0.13 µg/mL | 0.14 µg/mL | 0.22 µg/mL | 0.27 µg/mL | 0.14 µg/mL |  |  |  |  |  |  | 0.16 µg/mL | 0.9 | -0.7 | -1.6 | 125% | 105% | 120%
COCOc1cccc2c1C1(CC2)C(=O)c2c(O)c3c(c(O)c2C1=O)C(=O)C(NCC(=O)O)=CC3=O (stereo not drawn) [Example 29, 2',3'-Dihydro-7'-(methoxymethoxy)-1H-indene-1'-spiro-2-[6-((carboxymethyl)amino)-4,9-dihydroxy-2H-benz[f]indene-1,3,5,8-tetrone]sodium salt] | 1 µg/mL | 1.2 µg/mL | 1 µg/mL | 0.9 µg/mL | 0.8 µg/mL |  |  |  |  |  |  | 1.6 µg/mL |  |  |  |  |  | 
CCSC1=C(SCC)C(=O)c2c(O)c3c(c(O)c2C1=O)C(=O)C1(CCc2cccc(OCOC)c21)C3=O [Example 30] | 2.2 µg/mL (≈ 4.07 µM) | 7 µg/mL (≈ 12.9 µM) | 3 µg/mL (≈ 5.55 µM) | 1.2 µg/mL (≈ 2.22 µM) | 1.8 µg/mL (≈ 3.33 µM) |  |  |  |  |  |  | > 16 µg/mL |  |  |  |  |  | 
COCOc1cccc2c1C1(CC2)C(=O)c2c(O)c3c(c(O)c2C1=O)C(=O)C(Sc1ccccc1)=C(Sc1ccccc1)C3=O [Example 31, 2',3'-Dihydro-7'-(methoxymethoxy)-1H-indene-1'-spiro-2-[6,7-di(phenylmercapto)-4,9-dihydroxy-2H-benz[f]indene-I,3,5,8-tetrone]] | > 16 µg/mL | > 16 µg/mL | > 16 µg/mL | > 16 µg/mL | > 16 µg/mL |  |  |  |  |  |  | > 16 µg/mL |  |  |  |  |  | 
O=C1C(Sc2ccccc2)=C(Sc2ccccc2)C(=O)c2c(O)c3c(c(O)c21)C(=O)C1(CCc2cccc(O)c21)C3=O [Example 32, 2',3'-Dihydro-7'-hydroxy-1H-indene-1'-spiro-2-[4,9-dihydroxy-6,7-di(phenylmercapto)-2H-benz[f]indene-1,3,5,8-tetrone]] | > 16 µg/mL | > 16 µg/mL | > 16 µg/mL | > 16 µg/mL | > 16 µg/mL |  |  |  |  |  |  | > 16 µg/mL |  |  |  |  |  | 
